Measured values: patent US20030044399A1, “Method of treatment” (SmithKline Beecham Corporation, priority 1998, published 2003)

Assays:
Falcipain 2 = Falcipain 2 (Plasmodium falciparum, UniProt Q8I6U4); assay: Cysteine protease inhibition, progress curve method, falcipain; format: biochemical; conditions: 10 uM Cbz-Leu-Arg-AMC, 100 mM Na acetate pH 5.5, 5 mM cysteine
Method: Standard assay conditions for the determination of kinetic constants used 10 uM fluorogenic peptide substrate, Cbz-Phe-Arg-AMC for the cysteine proteases from Leishmania spp and Schistosoma Mansoni, Cbz-Leu-Arg-AMC for the cysteine proteases from Plasmodium falciparum and Trypanosoma brucei rhodesiensi, and Ac-Lys-Glu-Lys-Leu-Arg-AMC (4 uM final substrate concentration) for the cysteine protease from Trypoanosoma cruzi, and were determined in 100 mM Na acetate at pH 5.5 containing 5 mM cysteine. Stock substrate solutions were prepared at concentrations of […] in DMSO with 10 uM (4 uM for Ac-Lys-Glu-Lys-Leu-Arg-AMC) final substrate concentration in the assays. The final DMSO concentration was 2% and the final volume was 100 uL. All assays were conducted at ambient temperature. Product progress curves were generated over 20 to 30 minutes following formation of AMC product.
Potential inhibitors were evaluated using the progress curve method. Assays were carried out in the presence of variable concentrations of test compound. Reactions were initiated by addition of enzyme to buffered solutions of inhibitor and substrate. Data analysis was conducted according to one of two procedures depending on the appearance of the progress curves in the presence of inhibitors. For those compounds whose progress curves were linear, apparent inhibition constants (Ki,app) were calculated according to equation 1 (Brandt et al., Biochemitsry, 1989, 28, 140):
v=VmA/[Ka(1+I/Ki,app)+A] (1)
Where v is the velocity of the reaction with maximal velocity Vm, A is the concentration of substrate with Michaelis constant of Ka, and I is the concentration of inhibitor.
[AMC]=vsst+(v0−vss)[1−exp (−kobst)]/kobs (2)
Where [AMC] is the concentration of product formed over time t, v0 is the initial reaction velocity and vss is the final steady state rate. Values for kobs were then analyzed as a linear function of inhibitor concentration to generate an apparent second order rate constant (kobs/inhibitor concentration or kobs/[I]) describing the time-dependent inhibition. A complete discussion of this kinetic treatment has been fully described (Morrison et al., Adv. Enzymol. Relat. Areas Mol. Biol., 1988, 61, 201).
Exemplary inhibition data for the compounds used in the present method collected in accordance with the above-described procedure are listed in Table I.

Cruzain = Cruzain (Trypanosoma cruzi, UniProt P25779); assay: Cysteine protease inhibition, progress curve method, cruzain; format: biochemical; conditions: 4 uM Ac-Lys-Glu-Lys-Leu-Arg-AMC, 100 mM Na acetate pH 5.5, 5 mM cysteine; read-out: Cruzain Ki
Sequence of Cruzain (P25779 123-337): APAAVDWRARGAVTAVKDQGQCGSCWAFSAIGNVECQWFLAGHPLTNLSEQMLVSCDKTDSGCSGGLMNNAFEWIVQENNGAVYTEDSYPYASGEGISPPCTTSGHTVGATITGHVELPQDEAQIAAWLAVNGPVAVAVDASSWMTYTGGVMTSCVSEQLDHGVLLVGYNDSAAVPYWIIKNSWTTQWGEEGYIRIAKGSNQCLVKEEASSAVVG
In short: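 Kinetic constants from AMC-release progress curves over 20–30 min at ambient temperature in 100 mM Na acetate pH 5.5, 5 mM cysteine, 2% DMSO; enzyme added last to inhibitor plus substrate. Substrates: 10 uM Cbz-Phe-Arg-AMC (Leishmania, Schistosoma), 10 uM Cbz-Leu-Arg-AMC (falcipain), 4 uM Ac-Lys-Glu-Lys-Leu-Arg-AMC (cruzain). Ki,app from linear curves; time-dependent inhibition as kobs/[I].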

Rhodazain = Rhodazain (Trypanosoma brucei rhodesiense, UniProt Q95PM0); assay: Cysteine protease inhibition, progress curve method, rhodazain; format: biochemical, Trypanosoma brucei rhodesiensi; conditions: Rhodazain Ki (nM), 10 uM Cbz-Leu-Arg-AMC, 100 mM Na acetate pH 5.5, 5 mM cysteine
Sequence of Rhodazain (Q95PM0 entry or part of it): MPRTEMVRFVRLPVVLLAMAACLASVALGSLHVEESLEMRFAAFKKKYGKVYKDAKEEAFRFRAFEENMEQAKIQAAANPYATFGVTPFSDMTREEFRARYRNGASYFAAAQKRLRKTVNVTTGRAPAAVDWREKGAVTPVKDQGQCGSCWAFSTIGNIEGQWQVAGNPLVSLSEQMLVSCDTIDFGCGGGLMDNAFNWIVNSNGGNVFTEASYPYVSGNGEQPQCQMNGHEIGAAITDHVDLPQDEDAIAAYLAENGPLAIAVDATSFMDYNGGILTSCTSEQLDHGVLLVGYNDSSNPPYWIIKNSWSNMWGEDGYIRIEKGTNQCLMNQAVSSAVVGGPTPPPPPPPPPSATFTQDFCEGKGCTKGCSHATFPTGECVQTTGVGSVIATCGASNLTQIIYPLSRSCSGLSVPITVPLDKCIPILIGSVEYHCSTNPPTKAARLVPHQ

Sequence of Falcipain 2 (Q8I6U4 244-484): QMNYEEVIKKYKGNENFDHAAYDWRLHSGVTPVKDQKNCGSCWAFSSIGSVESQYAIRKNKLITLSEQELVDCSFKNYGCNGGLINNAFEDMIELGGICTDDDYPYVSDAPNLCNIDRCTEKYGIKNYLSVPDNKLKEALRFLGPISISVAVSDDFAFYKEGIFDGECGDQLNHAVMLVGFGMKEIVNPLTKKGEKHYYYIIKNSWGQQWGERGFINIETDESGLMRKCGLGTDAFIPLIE

SMILES	Ki (Falcipain 2) [nM]	Ki (Cruzain) [nM]	Ki (Rhodazain) [nM]
COc1cc2cc(C(=O)N[C@@H](CC(C)C)C(=O)NC3CCCN(S(=O)(=O)c4cn(C)cn4)CC3=O)oc2cc1OC (stereo partly drawn) [Example 39, 5,6-Dimethoxy-benzofuran-2-carboxylic acid {(S)-3-methyl-1-[3-oxo-1-(1-methyl-1H-imidazole-4-sulfonyl)-azepan-4-ylcarbamoyl]-butyl}amide]	3.9	7.4	2.2
CC(C)C[C@H](NC(=O)c1cc2sccc2s1)C(=O)N[C@H]1CCCN(C(=O)Nc2ccccc2F)CC1=O [Example 218, Thieno[3,2-b]thiophene-2-carboxylic acid {(S)-1-[1-(2-fluoro-phenylcarbamoyl)-3-oxo-azepan-4-ylcarbamoyl]-3-methyl-butyl}-amide]	3.1	5.4	2.3
Cc1c(C(=O)N[C@@H](CC(C)C)C(=O)N[C@H]2C[C@H](C)CN(S(=O)(=O)c3ccccn3)CC2=O)oc2ccccc12 [Example 199, 3-Methyl-benzofuran-2-carboxylic acid {(S)-3-methyl-1-[6-methyl-3-oxo-1-(pyridine-2-sulfonyl)-azepan-4-ylcarbamoyl]-butyl}-amide]	5.6	2.3	2
CC(C)C[C@@H](NC(=O)c1ccc2[nH]ccc2c1)C(=O)NC1CCCN(S(=O)(=O)c2cccc[n+]2[O-])CC1=O (single isomer, unassigned) [Example 64]	6.2	4.1	2.7
CC(C)CC(NC(=O)c1nc(-c2ccccc2)oc1C(F)(F)F)C(=O)NC1CCCN(S(=O)(=O)c2ccccn2)CC1=O (single isomer, unassigned) [Example 105]	84	13	5.3
CC(C)C[C@H](NC(=O)c1cc2ccccc2s1)C(=O)N[C@H]1CCCN(S(=O)(=O)c2nccs2)CC1=O [Example 127, Benzo[b]thiophene-2-carboxylic acid {(S)-3-methyl-1-[3-oxo-1-(thiazole-2-sulfonyl)-azepan-4-ylcarbamoyl]-butyl}amide]	8.1	2.8	4.7
COc1ccc2oc(C(=O)N[C@@H](CC(C)C)C(=O)N[C@H]3CCCN(C(=O)Nc4ccccc4F)CC3=O)cc2c1 [Example 221, 5-Methoxy-benzofuran-2-carboxylic acid {(S)-1-[1-(2-fluoro-phenylcarbamoyl)-3-oxo-azepan-4-ylcarbamoyl]-3-methyl-butyl}-amide]	2	3	1.2
COc1cccc2cc(C(=O)N[C@H](CC(C)C)C(=O)N[C@H]3CCCN(S(=O)(=O)c4ccccn4)CC3=O)oc12 [Example 164]	2.2	4.2	5.1
COc1ccc2oc(C(=O)N[C@@H](CC(C)C)C(=O)N[C@H]3CCCN(S(=O)(=O)c4nccs4)CC3=O)cc2c1 [Example 124, 5-Methoxybenzofuran-2-carboxylic acid {(S)-3-methyl-1-[3-oxo-1-(thiazole-2-sulfonyl)-azepan-4-ylcarbamoyl]-buty}amide]	4.9	2	2.2
COc1cccc2cc(C(=O)N[C@@H](CC(C)C)C(=O)N[C@H]3CCCN(S(=O)(=O)c4ccccc4F)CC3=O)oc12 [Example 93, 7-Methoxy-benzofuran-2-carboxylic acid-{(S)-1-[1-(2-fluoro-benzenesulfonyl)-3-oxo-azepan-4-ylcarbamoyl]-3-methyl-butyl}-amide]	7	11	11
CC(C)CC(NC(=O)c1ccc2c(c1)OCO2)C(=O)N[C@@H]1CCCN(S(=O)(=O)c2cccc[n+]2[O-])CC1=O (single isomer, unassigned) [Example 76]	7.8	14	5.4
CC(C)CC(NC(=O)c1ccc2c(c1)OCCCO2)C(=O)N[C@@H]1CCCN(S(=O)(=O)c2cccc[n+]2[O-])CC1=O (single isomer, unassigned) [Example 78]	7.1	4.4	4.6
